The values below come from patent publication US8933113B2 (Merck Sharp & Dohme Corp., priority 2011, dated 2015).

One experiment addresses T1, full-length human Mineralocorticoid Receptor (MR) (Homo sapiens, UniProt P08235).
T1 construct: host or cells: PathHunter CHO-K1 cells
T1 sequence (P08235 1-984): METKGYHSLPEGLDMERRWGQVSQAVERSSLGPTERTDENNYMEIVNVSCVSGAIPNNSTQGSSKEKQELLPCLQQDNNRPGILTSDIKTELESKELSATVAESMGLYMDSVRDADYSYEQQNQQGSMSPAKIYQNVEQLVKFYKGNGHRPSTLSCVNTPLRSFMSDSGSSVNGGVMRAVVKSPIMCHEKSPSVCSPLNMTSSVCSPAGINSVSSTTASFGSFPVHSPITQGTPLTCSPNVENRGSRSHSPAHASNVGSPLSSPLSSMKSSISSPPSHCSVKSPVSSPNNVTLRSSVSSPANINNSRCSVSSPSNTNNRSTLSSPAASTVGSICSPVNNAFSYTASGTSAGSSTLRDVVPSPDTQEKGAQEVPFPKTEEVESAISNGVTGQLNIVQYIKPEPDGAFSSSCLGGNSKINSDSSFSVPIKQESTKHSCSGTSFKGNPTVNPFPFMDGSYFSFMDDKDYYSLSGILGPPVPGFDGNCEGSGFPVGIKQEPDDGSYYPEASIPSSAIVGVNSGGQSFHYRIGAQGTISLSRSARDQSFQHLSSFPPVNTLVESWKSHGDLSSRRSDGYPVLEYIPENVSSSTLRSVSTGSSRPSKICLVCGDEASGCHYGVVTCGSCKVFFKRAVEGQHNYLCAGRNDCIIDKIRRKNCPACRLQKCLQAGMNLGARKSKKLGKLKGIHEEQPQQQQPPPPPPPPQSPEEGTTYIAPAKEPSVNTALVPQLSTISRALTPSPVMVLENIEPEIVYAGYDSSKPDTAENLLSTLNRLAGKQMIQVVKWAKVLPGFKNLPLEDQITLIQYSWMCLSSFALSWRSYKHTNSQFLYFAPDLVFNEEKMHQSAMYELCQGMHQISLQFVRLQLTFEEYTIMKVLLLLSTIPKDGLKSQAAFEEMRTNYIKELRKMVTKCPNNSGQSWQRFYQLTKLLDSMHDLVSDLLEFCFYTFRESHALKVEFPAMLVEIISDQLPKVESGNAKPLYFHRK
The experiment is described as follows: human MR NH Pro assay (PathHunter Protein:Protein interaction assay), MR antagonist activity.
Conditions: not given
Type of experiment: cell-based. An excerpt:
The activity of the compounds of the present invention regarding mineralocorticoid receptor antagonism can be evaluated using the following assay.
Assessment of MR Potency in HMR NH Pro Assay
The human MR NH Pro assay is a commercially available PathHunter™ Protein:Protein interaction assay (DiscoveRx; http://www.discoverx.com/nhrs/prod-nhrs.php) that measures the ability of compounds to antagonize full-length human Mineralocorticoid Receptor (MR) binding to a coactivator peptide.
6. Test compounds are titrated starting at 4.4 mM, 10-point titration in 1:3 dilution.
3. Add 5 μL 6× agonist (final aldosterone concentration should be about 0.3 nM to about 1.0 nM) to all wells (using the PlateMate Plus.)
• (ThermoFisher) (except those wells in columns 23 and 24) 4. Add 5 uL of assay media to all wells in column 23 and 24. 5. Incubate 6 hrs at 37° C., 5% CO2. 6. Add 15 uL 3× DiscoveRx detection reagent to each well. 7. Incubate 1 hour at room temperature (keep plates stored in the dark). 8. Read plates on Envision (PerkinElmer) luminesence plate reader and analyze using ADA.
In turn, `CCC(C(=O)NCCCl)(c1ccc(Cl)cc1)n1ccc2c(NS(C)(=O)=O)cccc21` (single isomer, unassigned) [Compound 148, N-(2-chloroethyl)-2-(4-chlorophenyl)-2-(4-(methylsulfonamido)-1H-indol-1-yl)butanamide] yielded an IC50 of 100 to 500 nM.

The same experiment, now with this note: PathHunter CHO-K1 cells overexpressing human MR; aldosterone about 0.3 nM; 6 hours at 37° C.; luminescence; read-out: Primary Assay IP rating (IP = inflection point for a given dose-response titration curve).
Regarding `CCC(CC#N)(c1ccc(Cl)cc1)n1ccc2c(NS(C)(=O)=O)cc(F)cc21` (single isomer, unassigned) [Compound 124, N-(1-(2-(4-chlorophenyl)-1-cyanobutan-2-yl)-6-fluoro-1H-indol-4-yl)methanesulfonamide], the IC50 lay in the range of 100 to 500 nM.

For `CCC(CC#N)(c1ccc(Cl)cc1)n1ccc2c(NS(C)(=O)=O)cc(F)cc21` (single isomer, unassigned) [Compound 125, N-(1-(2-(4-chlorophenyl)-1-cyanobutan-2-yl)-6-fluoro-1H-indol-4-yl)methanesulfonamide], the IC50 is under 100 nM.

With `CCC(CCC#N)(c1ccc(Cl)cc1)n1ncc2c(NS(C)(=O)=O)cccc21` (single isomer, unassigned) [Compound 137, N-(1-(3-(4-chlorophenyl)-1-cyanopentan-3-yl)-1H-indazol-4-yl)methanesulfonamide], the IC50 was 100 to 500 nM.

As for `CCC(CCC#N)(c1ccc(Cl)cc1)n1ncc2c(NS(C)(=O)=O)cccc21` (single isomer, unassigned) [Compound 138, N-(1-(3-(4-chlorophenyl)-1-cyanopentan-3-yl)-1H-indazol-4-yl)methanesulfonamide], the IC50 is under 100 nM.

Regarding `CCC(CCC#N)(c1ccc(Cl)cc1)n1ccc2c(NS(C)(=O)=O)cccc21` (single isomer, unassigned) [Compound 140, N-(1-(3-(4-chlorophenyl)-1-cyanopentan-3-yl)-1H-indol-4-yl)methanesulfonamide], the IC50 was under 100 nM.

For the compound `CCC(CCC#N)(c1ccc(C(F)(F)F)cc1)n1ncc2c(NS(C)(=O)=O)cccc21` (single isomer, unassigned) [Compound 141, N-(1-(1-cyano-3-(4-(trifluoromethyl)phenyl)pentan-3-yl)-1H-indazol-4-yl)methanesulfonamide], the IC50 is under 100 nM.

On to `CCC(CCC#N)(c1ccc(Cl)cc1)n1ccc2c(NS(C)(=O)=O)cc(F)cc21` (single isomer, unassigned) [Compound 142, N-(1-(3-(4-chlorophenyl)-1-cyanopentan-3-yl)-6-fluoro-1H-indol-4-yl)methanesulfonamide], for which the IC50 is under 100 nM.

For `CCC(CCC#N)(c1ccc(Cl)cc1)n1ccc2c(NS(C)(=O)=O)cc(F)cc21` (single isomer, unassigned) [Compound 143, N-(1-(3-(4-chlorophenyl)-1-cyanopentan-3-yl)-6-fluoro-1H-indol-4-yl)methanesulfonamide], the IC50 was under 100 nM.

Regarding `CCC(C(=O)CC#N)(c1ccc(Cl)cc1)n1ccc2c(NS(C)(=O)=O)cccc21` (single isomer, unassigned) [Compound 146, N-(1-(3-(4-Chlorophenyl)-1-cyano-2-oxopentan-3-yl)-1H-indol-4-yl)methanesulfonamide], the IC50 was under 100 nM.

Turning to `CCC(c1ccc(Cl)cc1)(c1nc(C)no1)n1ccc2c(NS(C)(=O)=O)cccc21` (single isomer, unassigned) [Compound 150, N-(1-(1-(4-chlorophenyl)-1-(3-methyl-1,2,4-oxadiazol-5-yl)propyl)-1H-indol-4-yl)methanesulfonamide], the IC50 is under 100 nM.

Turning to `CCc1noc(C(CC)(c2ccc(Cl)cc2)n2ccc3c(NS(C)(=O)=O)cccc32)n1` (single isomer, unassigned) [Compound 151, N-(1-(1-(4-chlorophenyl)-1-(3-ethyl-1,2,4-oxadiazol-5-yl)propyl)-1H-indol-4-yl)methanesulfonamide], the IC50 was under 100 nM.

With `CCC(C#CC#N)(c1ccc(Cl)cc1)n1ccc2c(NS(C)(=O)=O)cccc21` (single isomer, unassigned) [Compound 155, N-(1-(3-(4-chlorophenyl)-1-cyanopent-1-yn-3-yl)-1H-indol-4-yl)methanesulfonamide], the IC50 was under 100 nM.

As to `CCC(CCO)(c1ccc(Cl)cc1)n1ccc2c(NS(C)(=O)=O)cccc21` (single isomer, unassigned) [Compound 160, N-(1-(3-(4-Chlorophenyl)-1-hydroxypentan-3-yl)-1H-indol-4-yl)methanesulfonamide], the IC50 was under 100 nM.

Turning to `CCC(CCO)(c1ccc(Cl)cc1)n1ccc2c(NS(C)(=O)=O)cccc21` (single isomer, unassigned) [Compound 161, N-(1-(3-(4-Chlorophenyl)-1-hydroxypentan-3-yl)-1H-indol-4-yl)methanesulfonamide], the IC50 was under 100 nM.

On to `CCC(c1ccc(Cl)cc1)(C(C)N)n1ccc2c(NS(C)(=O)=O)cccc21` (single isomer, unassigned) [Compound 176, N-(1-(2-amino-3-(4-chlorophenyl)pentan-3-yl)-1H-indol-4-yl)methanesulfonamide], for which the IC50 is under 100 nM.

Consider `CCn1nnc(C(CC)(c2ccc(Cl)cc2)n2ccc3c(NS(C)(=O)=O)cccc32)n1` (single isomer, unassigned) [Compound 179, N-(1-(1-(4-chlorophenyl)-1-(2-ethyl-2H-tetrazol-5-yl)propyl)-1H-indol-4-yl)methane sulfonamide], for which the IC50 is under 100 nM.

Consider `CCC(CCC(F)(F)F)(c1ccc(Cl)cc1)n1ccc2c(NS(C)(=O)=O)cccc21` (single isomer, unassigned) [Compound 180, N-(1-(3-(4-chlorophenyl)-6,6,6-trifluorohexan-3-yl)-1H-indol-4-yl)methane sulfonamide], for which the IC50 is under 100 nM.

Regarding `COC(=O)C(c1ccc(Cl)cc1)n1ccc2c([N+](=O)[O-])cccc21` (stereo not shown) [Compound 1, methyl (4-chlorophenyl)(4-nitro-1H-indol-1-yl)acetate], the IC50 is 500 to 5000 nM.

Take `COC(=O)C(c1ccc(F)cc1Cl)n1ccc2c([N+](=O)[O-])cccc21` (stereo not shown) [Compound 2, methyl (2-chloro-4-fluorophenyl)(4-nitro-1H-indol-1-yl)acetate]: the IC50 fell in the range of 100 to 500 nM.

With `COC(=O)C(c1ccc(Cl)cc1Cl)n1ccc2c([N+](=O)[O-])cccc21` (stereo not shown) [Compound 3, methyl (2,4-dichlorophenyl)(4-nitro-1H-indol-1-yl)acetate], the IC50 lay in the range of 100 to 500 nM.

With `COC(=O)C(c1cccc(Br)c1)n1ccc2c([N+](=O)[O-])cccc21` (stereo not shown) [Compound 4, methyl (3-bromophenyl)(4-nitro-1H-indol-1-yl)acetate], the IC50 lay in the range of 500 to 5000 nM.

For `COC(=O)C(c1ccc(OC)cc1)n1ccc2c([N+](=O)[O-])cccc21` (stereo not shown) [Compound 5, methyl (4-methoxyphenyl)(4-nitro-1H-indol-1-yl)acetate], the IC50 lay in the range of 500 to 5000 nM.

For the compound `CC[C@](C#N)(c1ccc(Cl)cc1)n1ccc2c(NS(C)(=O)=O)cccc21` [Compound 5a, (R)—N-{1-[1-(4-chlorophenyl)-1-cyanopropyl]-1H-indol-4-yl}methanesulfonamide], the IC50 was under 100 nM.

For `COC(=O)C(c1ccc(F)cc1Cl)n1ccc2cc(C#N)ccc21` (stereo not shown) [Compound 11, methyl (2-chloro-4-fluorophenyl)(5-cyano-1H-indol-1-yl)acetate], the IC50 was in the range of 500 to 5000 nM.

Take `COC(=O)C(c1ccc(F)cc1Cl)n1ccc2cc(Cl)ccc21` (stereo not shown) [Compound 12, methyl (2-chloro-4-fluorophenyl)(5-chloro-1H-indol-1-yl)acetate]: the IC50 was in the range of 500 to 5000 nM.

For the compound `COC(=O)C(c1ccc(F)cc1Cl)n1ccc2cc(F)ccc21` (stereo not shown) [Compound 13, methyl (2-chloro-4-fluorophenyl)(5-fluoro-1H-indol-1-yl)acetate], the IC50 was in the range of 500 to 5000 nM.

As for `COC(=O)C(c1ccc(F)cc1Cl)n1ccc2ccc(Cl)cc21` (stereo not shown) [Compound 14, methyl (2-chloro-4-fluorophenyl)(6-chloro-1H-indol-1-yl)acetate], the IC50 lay within 500 to 5000 nM.
